Data published in ChEMBL document CHEMBL5725273, “Thienopyranones as kinase and epigenetic inhibitors” (2016).

Experiments:
[1] = target: Bromodomain-containing protein 4 (Homo sapiens, UniProt O60885); assay: (§1) Inhibition Assay: Several TP Scaffold compounds were tested for inhibition activity against isoforms of PI3K (alpha, beta, gamma, and delta isoforms) and the bromodomain protein BRD4 at regions 1 (BRD4-1) and 2 (BRD4-2).
[2] = target: Phosphatidylinositol 4,5-bisphosphate 3-kinase catalytic subunit alpha isoform (Homo sapiens, UniProt P42336); assay: as §1
Chain of Phosphatidylinositol 4,5-bisphosphate 3-kinase catalytic subunit alpha isoform (P42336 whole entry, canonical isoform): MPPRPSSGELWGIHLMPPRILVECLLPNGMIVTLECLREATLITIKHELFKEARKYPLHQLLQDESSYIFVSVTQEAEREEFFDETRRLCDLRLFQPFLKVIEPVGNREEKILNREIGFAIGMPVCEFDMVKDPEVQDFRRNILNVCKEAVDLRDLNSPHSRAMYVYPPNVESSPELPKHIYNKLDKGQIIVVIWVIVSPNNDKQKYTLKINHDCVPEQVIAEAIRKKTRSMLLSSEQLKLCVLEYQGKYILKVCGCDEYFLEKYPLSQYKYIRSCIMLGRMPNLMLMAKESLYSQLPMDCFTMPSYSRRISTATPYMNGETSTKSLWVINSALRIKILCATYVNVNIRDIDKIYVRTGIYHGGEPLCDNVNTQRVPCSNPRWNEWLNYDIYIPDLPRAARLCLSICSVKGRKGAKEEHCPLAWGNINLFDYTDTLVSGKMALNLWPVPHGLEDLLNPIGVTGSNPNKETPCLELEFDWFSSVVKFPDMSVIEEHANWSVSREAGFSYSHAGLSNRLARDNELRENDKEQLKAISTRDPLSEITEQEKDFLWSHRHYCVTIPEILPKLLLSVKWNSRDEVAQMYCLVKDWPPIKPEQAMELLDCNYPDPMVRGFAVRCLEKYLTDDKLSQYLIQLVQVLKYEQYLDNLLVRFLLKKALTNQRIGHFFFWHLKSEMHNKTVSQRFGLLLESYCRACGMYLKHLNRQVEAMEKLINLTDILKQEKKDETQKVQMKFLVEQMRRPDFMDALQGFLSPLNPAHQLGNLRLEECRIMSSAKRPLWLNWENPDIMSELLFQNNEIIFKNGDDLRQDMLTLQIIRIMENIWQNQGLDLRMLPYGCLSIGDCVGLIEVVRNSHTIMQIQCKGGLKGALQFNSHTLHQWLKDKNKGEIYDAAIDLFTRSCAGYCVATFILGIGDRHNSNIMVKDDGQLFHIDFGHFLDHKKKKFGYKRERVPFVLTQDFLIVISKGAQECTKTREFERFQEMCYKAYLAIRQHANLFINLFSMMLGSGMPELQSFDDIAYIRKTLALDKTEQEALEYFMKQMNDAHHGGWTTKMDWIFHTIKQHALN

[3] = target: T1, Phosphatidylinositol 4,5-bisphosphate 3-kinase catalytic subunit delta isoform (Homo sapiens, UniProt O00329); assay: as §1
T1 sequence (O00329 whole entry): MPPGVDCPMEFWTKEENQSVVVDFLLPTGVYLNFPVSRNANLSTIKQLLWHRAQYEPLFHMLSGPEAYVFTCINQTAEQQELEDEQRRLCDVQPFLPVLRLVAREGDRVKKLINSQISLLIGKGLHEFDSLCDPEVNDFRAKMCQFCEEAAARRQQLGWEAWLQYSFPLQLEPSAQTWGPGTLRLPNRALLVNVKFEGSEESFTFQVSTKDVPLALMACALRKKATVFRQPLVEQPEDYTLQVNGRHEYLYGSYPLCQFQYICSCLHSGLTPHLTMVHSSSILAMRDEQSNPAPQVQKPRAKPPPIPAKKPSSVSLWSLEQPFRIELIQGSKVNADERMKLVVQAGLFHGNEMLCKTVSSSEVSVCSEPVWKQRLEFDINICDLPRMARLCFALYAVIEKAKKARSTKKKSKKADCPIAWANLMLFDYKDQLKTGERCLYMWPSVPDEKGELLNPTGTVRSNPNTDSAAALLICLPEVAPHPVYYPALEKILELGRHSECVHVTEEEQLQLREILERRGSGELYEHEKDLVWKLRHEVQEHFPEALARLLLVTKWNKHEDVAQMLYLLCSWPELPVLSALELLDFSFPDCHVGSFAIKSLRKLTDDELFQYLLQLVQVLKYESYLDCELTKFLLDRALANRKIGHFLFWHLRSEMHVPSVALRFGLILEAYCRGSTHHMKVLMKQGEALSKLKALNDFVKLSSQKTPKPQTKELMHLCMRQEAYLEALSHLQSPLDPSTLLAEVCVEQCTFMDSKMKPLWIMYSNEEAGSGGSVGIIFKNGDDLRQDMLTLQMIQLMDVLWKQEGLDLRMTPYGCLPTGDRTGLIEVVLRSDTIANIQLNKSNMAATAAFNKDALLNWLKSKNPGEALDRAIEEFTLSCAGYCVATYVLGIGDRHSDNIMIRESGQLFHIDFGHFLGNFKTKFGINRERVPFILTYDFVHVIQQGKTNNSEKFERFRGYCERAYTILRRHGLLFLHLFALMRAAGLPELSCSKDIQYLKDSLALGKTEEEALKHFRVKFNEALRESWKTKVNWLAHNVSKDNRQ

[4] = target: Phosphatidylinositol 4,5-bisphosphate 3-kinase catalytic subunit gamma isoform (Homo sapiens, UniProt P48736); assay: as §1
Chain of Phosphatidylinositol 4,5-bisphosphate 3-kinase catalytic subunit gamma isoform (P48736 whole entry, canonical isoform): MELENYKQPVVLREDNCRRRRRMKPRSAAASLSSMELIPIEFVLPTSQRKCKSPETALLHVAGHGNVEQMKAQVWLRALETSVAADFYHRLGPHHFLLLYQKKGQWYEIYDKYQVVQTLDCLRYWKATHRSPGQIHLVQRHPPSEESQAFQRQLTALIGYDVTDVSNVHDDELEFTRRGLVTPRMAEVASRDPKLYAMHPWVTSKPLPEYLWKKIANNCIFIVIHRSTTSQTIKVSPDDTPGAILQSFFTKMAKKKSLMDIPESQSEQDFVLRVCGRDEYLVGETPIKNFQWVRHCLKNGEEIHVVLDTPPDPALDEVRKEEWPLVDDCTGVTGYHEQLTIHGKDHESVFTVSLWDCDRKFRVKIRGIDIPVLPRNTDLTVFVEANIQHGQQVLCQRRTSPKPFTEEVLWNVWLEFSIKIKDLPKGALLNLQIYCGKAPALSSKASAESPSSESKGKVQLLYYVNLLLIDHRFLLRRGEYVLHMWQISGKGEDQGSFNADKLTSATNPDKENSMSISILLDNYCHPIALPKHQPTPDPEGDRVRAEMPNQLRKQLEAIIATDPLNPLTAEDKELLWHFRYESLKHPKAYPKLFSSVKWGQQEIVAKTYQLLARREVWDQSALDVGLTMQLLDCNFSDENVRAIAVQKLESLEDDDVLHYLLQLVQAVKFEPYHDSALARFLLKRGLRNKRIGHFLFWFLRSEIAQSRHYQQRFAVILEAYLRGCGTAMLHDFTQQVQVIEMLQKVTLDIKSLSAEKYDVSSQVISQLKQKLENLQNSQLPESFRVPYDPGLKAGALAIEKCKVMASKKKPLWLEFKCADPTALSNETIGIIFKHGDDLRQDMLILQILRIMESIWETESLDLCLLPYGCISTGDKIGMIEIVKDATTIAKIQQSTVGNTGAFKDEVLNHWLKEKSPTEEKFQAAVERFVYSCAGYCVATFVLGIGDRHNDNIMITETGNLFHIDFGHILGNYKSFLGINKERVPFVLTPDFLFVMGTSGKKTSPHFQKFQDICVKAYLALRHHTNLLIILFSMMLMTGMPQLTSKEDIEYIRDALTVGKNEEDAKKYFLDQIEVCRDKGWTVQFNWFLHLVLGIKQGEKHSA

Compound `CCOC(=O)c1ccc(-c2csc3c(=O)cc(N4CCSCC4)oc23)cc1` has an IC50 [1] of 1010 nM, an IC50 [2] of 29100 nM and an IC50 [3] of 2490 nM. For the same compound, the IC50 [4] was > 50000 nM.
